Counter-ions that a name gives are not always drawn. Values belong to the compound of their own block, whether it stands above or below them.
Experiments:
[1] = target: T1, Human adenosine A2b receptor (Homo sapiens, UniProt P29275); test: Suppression of NECA-stimulated cAMP production in adenosine A2b receptor expressed CHOK1 cells; format: cell-based; conditions: NECA 30 nM
T1 construct: expressed in transfected cells; host or cells: CHOK1 cells
T1 sequence (P29275 1-332): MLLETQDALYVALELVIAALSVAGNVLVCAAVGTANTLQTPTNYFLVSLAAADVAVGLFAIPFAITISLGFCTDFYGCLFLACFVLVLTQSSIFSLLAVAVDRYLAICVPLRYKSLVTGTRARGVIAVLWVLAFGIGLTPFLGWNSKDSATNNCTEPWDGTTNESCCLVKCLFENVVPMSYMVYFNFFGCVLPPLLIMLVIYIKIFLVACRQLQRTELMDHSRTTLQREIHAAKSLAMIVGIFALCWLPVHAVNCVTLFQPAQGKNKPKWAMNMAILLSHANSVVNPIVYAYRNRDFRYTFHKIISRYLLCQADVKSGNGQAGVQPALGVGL
Description: Human adenosine A2b receptor cDNA was over-expressed in CHOK1 cells. […] Affinity of the test compound to the A2b receptor was evaluated in which the index used was the degree of suppression of the amount of cAMP produced by stimulation of NECA (30 nM) which was an adenosine agonist in the presence of the test compound. Thus, after washing with 2 ml/well of an incubation buffer (Krebs solution; pH7.4) twice, a pre-incubation was carried out at 0.5 ml/well for 30 minutes. […] After 15 minutes, the reaction was stopped by substituting 0.1N HCl (300 μl/well) for the reaction solution. Measurement of cAMP was carried out using an Amersham cAMP EIA Kit.
Calculation of the suppression rate of the test compound to the NECA-stimulated cAMP production was done by the following expression.
Inhibition Rate (%)=[1−{(cAMP amount in the presence of NECA and test compound-cAMP amount in the case of incubation buffer only)/(cAMP amount stimulated only by NECA-cAMP amount in the case of incubation buffer only)}]×100.
IC50 […]was calculated from the above.

[2] = system: spontaneous diabetic mice (KK-A^y/Ta Jcl); test: Action to hyperglycemia of spontaneous diabetic mice (KK-A^y/Ta Jcl), single oral administration; format: in vivo, mouse
Description: Animals: Five male KK-A^y/Ta Jcl mice for each group (purchased from Nippon Clair)
Preparation and Administration of Test Compound: A test compound in a dose as shown in Table 2 was suspended in a 0.5% aqueous solution of methyl cellulose and was orally administered in a dose of 10 ml/kg.
Collection of Blood Samples and Determination of Blood Sugar: Blood was collected from tail vein immediately before administration of the test compound and also five hours after the administration and blood sugar was determined.
(§1) Method: Tail vein of a mouse was injured by a razor without an anesthetization to bleed slightly. The blood (15 μl) was collected and immediately mixed with 135 μl of a 0.6 M perchloric acid. Glucose in the supernatant obtained by a centrifugal separation (at 1500 g for 10 minutes at 4° C. using a cooling centrifuge GS-6KR of Beckmann) was determined by a Glucose CII Test Wako (Wako Pure Chemicals).
The result is shown in terms of “(% ratio of the blood sugar after 5 hours from the administration to the blood sugar before the administration)±(standard error)”. The data were subjected to a one-way layout analysis of variance and then subjected to a multiple comparison of a Dunnett type. The case where p<0.05 was judged to be that a significant difference was available.
Animals: Five male KK-A^y/Ta Jcl mice for each group (introduced from Nippon Clair)
Preparation and Administration of Test Compound: A test compound in a dose shown in Table 6 was suspended in a 0.5% aqueous solution of methyl cellulose and was orally administered in a dose of 10 ml/kg.
as §1, with “vein of mouse was” for “vein of a mouse was”
The result is shown in terms of “(% ratio of the blood sugar after 5 hours from the administration to the blood sugar before the administration)±(standard error)”. The data were subjected to a one-way layout analysis of variance and then subjected to a multiple comparison of Dunnett type. The case where p<0.05 was judged that a significant difference was available.

[3] = Glucose tolerance test (impaired glucose tolerance); conditions: in vivo
adenosine A2a receptor = target: T2, adenosine A2a receptor (Homo sapiens, UniProt P29274); test: Adenosine A2a receptor binding experiment (3H-CGS21680); conditions: A2a receptor membrane specimen
T2 construct: purchased Receptor Biology, Inc
T2 sequence (P29274 whole entry): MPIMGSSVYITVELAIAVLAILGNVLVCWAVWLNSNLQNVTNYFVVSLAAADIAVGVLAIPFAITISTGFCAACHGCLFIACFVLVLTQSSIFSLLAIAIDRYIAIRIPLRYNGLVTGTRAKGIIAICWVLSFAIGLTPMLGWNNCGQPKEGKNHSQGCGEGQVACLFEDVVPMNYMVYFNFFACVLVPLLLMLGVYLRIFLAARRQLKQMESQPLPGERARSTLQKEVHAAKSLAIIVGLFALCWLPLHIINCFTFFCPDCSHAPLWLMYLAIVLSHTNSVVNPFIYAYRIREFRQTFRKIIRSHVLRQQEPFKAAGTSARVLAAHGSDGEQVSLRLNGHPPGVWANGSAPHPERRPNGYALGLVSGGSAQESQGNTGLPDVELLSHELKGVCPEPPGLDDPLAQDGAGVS
Description: A membrane specimen prepared by an over-expression of adenosine A2a receptor was purchased from Receptor Biology, Inc. and adenosine A2a receptor binding experiments were carried out using that. […] To 0.45 ml of this membrane specimen were added 0.025 ml of tritium-labeled ^3H-CGS21680 (500 nM; 30 Ci/mmol) and 0.025 ml of the test compound. The solution of the test compound was prepared in such a manner that, firstly, the compound was dissolved in DMSO to make 20 mM concentration and then successively diluted each 10-fold using an incubation buffer. […] After that, the glass fiber filter was transferred to a vial bottle, a scintillator was added and the radioactivity on the filter was measured by a liquid scintillation counter. Calculation of the inhibition rate of the test compound to the receptor bond (^3H-CGS21680) of A2a was carried out by the following expression and, based upon that, IC50 was calculated. […]
Total binding amount is a ^3H-CGS21680 binding radioactivity in the absence of the test compound.
Non-specific binding amount is a ^3H-CGS21680 binding radioactivity in the presence of 100 μM of RPIA.
Binding amount in the presence of drug is a ^3H-CGS21680 binding radioactivity in the presence of the test compound of various concentrations.

[4] = target: T3, Human adenosine A1 receptor (Homo sapiens, UniProt P30542); test: Adenosine A1 receptor binding experiment (3H-CCPA); conditions: human A1 receptor expressed in CHOK1 membranes
T3 construct: expressed in transfected cells; host or cells: CHOK1 cells (membrane specimen)
T3 sequence (P30542 1-326): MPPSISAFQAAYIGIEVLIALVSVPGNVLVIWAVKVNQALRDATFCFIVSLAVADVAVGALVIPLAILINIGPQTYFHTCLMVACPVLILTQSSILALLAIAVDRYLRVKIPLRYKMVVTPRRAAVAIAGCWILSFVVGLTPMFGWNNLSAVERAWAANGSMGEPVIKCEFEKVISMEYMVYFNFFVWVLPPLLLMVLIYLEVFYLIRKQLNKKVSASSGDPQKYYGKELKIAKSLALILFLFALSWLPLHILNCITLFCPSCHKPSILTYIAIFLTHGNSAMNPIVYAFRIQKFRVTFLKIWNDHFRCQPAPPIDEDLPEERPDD
Description: Human adenosine A1 receptor cDNA was subjected to an over-expression in CHOK1 cells and its membrane specimen was suspended in an incubation buffer (20 mM HEPES, 10 mM MgCl2 and 100 mM NaCl; pH 7.4) to make the concentration 66.7 μg/ml. To 0.45 ml of this membrane specimen were added 0.025 ml of tritium-labeled chlorocyclopentyl adenosine (60 nM ^3H-CCPA; 30 Ci/mmol) and 0.025 ml of the compound to be tested. The solution of the compound to be tested was prepared in such a manner that, firstly, the compound was dissolved in DMSO to make 20 mM concentration and then successively diluted each 10-fold using an incubation buffer. The mixture was allowed to stand at 30° C. for 120 minutes, subjected to a quick suction on a glass fiber filter (GF/B; manufactured by Whatman) and immediately washed with 5 ml of ice-cooled 50mM Tris-HCl buffer twice. After that, the glass fiber filter was transferred to a vial bottle, a scintillator was added and the radioactivity on the filter was measured by a liquid scintillation counter. Calculation of the inhibition rate of the test compound to the receptor bond (^3H-CCPA) was carried out by the following expression and, based upon that, IC50 was calculated.
Inhibition Rate (%)=[1−{(Binding amount in the presence of drug-Non-specific binding amount)/(Total binding amount-Non-specific binding amount)}]×100
Total binding amount is a ^3H-CCPA binding radioactivity in the absence of the test compound.
Non-specific binding amount is a ^3H-CCPA binding radioactivity in the presence of 100 μM of RPIA.
Binding amount in the presence of drug is a ^3H-CCPA binding radioactivity in the presence of the test compound of various concentrations.
The inhibition constant (Ki value) in Table was calculated from Cheng-Prusoff's expression.

IC50 [1]: 28 nM
SMILES: CCn1c(-c2cccc(F)c2)nc2c(N)nc(C#CC3(O)CCC3)nc21 [Compound A]
% ratio of the blood sugar after 5 hours from the administration to the blood sugar before the administration ± standard error ([2]; Table 6-1, 10 mg/kg oral, administered in a form of sulfate, solvent group 72.4 ± 4.4): 47.8 ± 4.8%

IC50 [1]: 70 nM
SMILES: Cn1c(-c2cccc(F)c2)nc2c(N)nc(C#CC3(O)CCCC3)nc21 [Compound B]

IC50 [1]: 100 nM
SMILES: Fc1cccc(-c2nc3cccnc3n2-c2ccncc2)c1 [Compound C, 2-(3-Fluorophenyl)-(4-pyridyl)-3H-imidazo[4,5-b]pyridine Hydrochloride, reference compound]
% ratio of the blood sugar after 5 hours from the administration to the blood sugar before the administration ± standard error ([2]; Table 6-2, 30 mg/kg oral, solvent group 69.8 ± 2.3): 48.5 ± 3.4%

SMILES: O=C(/C=C/c1c(-c2ccccc2)nn2ccccc12)N1CCCC[C@@H]1CCO [FK453, reference compound]
glucose tolerance improving action in glucose tolerance test (in words) [3]: no glucose tolerance improving action was noted
hypoglycemic action in the present diabetic models (in words) ([2]; even at the dose of 100 mg/kg): no hypoglycemic action was noted

IC50 [1]: 1360 nM
SMILES: CCCn1c(=O)c2c(nc(/C=C/c3ccc(OC)c(OC)c3)n2C)n(CCC)c1=O [KF17837]

Ki (adenosine A2a receptor): 2 nM
Ki [4]: 24 nM
SMILES: CCn1c(-c2cccc(F)c2)nc2c(N)nc(C#CC3(O)CCC3)nc21 [drawing 259]

Ki (adenosine A2a receptor): 750 nM
Ki [4]: 54 nM
SMILES: Fc1cccc(-c2nc3cccnc3n2-c2ccncc2)c1 [drawing 261]
